In assay [1] the test system is iron-induced lipid peroxidation in rat brain homogenates. The experiment in a line: Lipid peroxidation assay (TBA). In kind it is biochemical, Wistar rats. The conditions noted are these: ferrous ion 200 μM, 37° C. 30 min. Here is the method:
Rat brain homogenate was prepared from the brains of freshly killed Wistar rats and its peroxidation. In the presence of iron ions was measured by the thiobarbituric acid (TBA). Teng, C. M. et al., Eur. J. Pharmacol., 303, 129-139 (1996). Tetramethoxypropane was used as a standard, and the results were expressed as nanomoles of malondialdehyde equivalents per milligram of protein of rat brain homogenates. In brief, whole brain tissue, excluding the cerebellum, was washed and homogenized in 10 volumes of ice-cold Krebs buffer (10 mM N-2 hydroxyethyl-piperazine-N′-2-ethanesulfonic acid (Hepes), 10 mM glucose, 140 mM NaCl, 3.6 mM KCl, 1.5 mM CaCl2, 1.4 mM KH2PO4, 0.7 mM MgSO4, pH 7.4) using a glass Dounce homogenizer. […] The reaction mixture with test compounds or vehicle was incubated for 10 min, then stimulated by addition of ferrous ion (200 μM freshly prepared), and maintained at 37° C. for 30 min. The reactions were terminated by adding […] of ice-cold trichloroacetic acid solution (4% (w/v) in 0.3 N HCl) and […], of thiobarbituric acid-reactive substance reagent (0.5% (w/v) thiobarbituric acid in 50% (v/v) acetic acid). After boiling for 15 min, the samples were cooled and extracted with n-butanol. The extent of lipid peroxidation was estimated as thiobarbituric acid-reactive substances and was read at 532 nm in a spectrophotometer (Shimadzu UV-160).

The subject of assay [2] is GBM cell line (human cervical carcinoma cells of ME 180 (GBM8401)). The experiment in a line: Growth inhibition assay, GBM cell line. In kind it is cell-based. Conditions: 48 hours, cell counting, read-out: IC50 GBM (concentration required to inhibit cell growth by 50% relative to controls). As for the experimental part:
(§1) Growth inhibition was measured in three human carcinoma cell lines (GBK KB and CHO) using a previously described […] assay. Hwang, J.-M. et al., Chin. Med. J (Taipei), 51, 166-175 (1993). Human oral epidermoid carcinoma cells (KB cell line), human cervical carcinoma cells of ME 180 (GBM8401) and Chinese hamster ovary (CHO) cells grown in plateau phase were used in all experiments. Each cell line was further divided into control and experimental groups, respectively.
(§2) Stock solutions of the test compounds were prepared in DMSO and diluted with DMEM to give a final concentration of DMSO of 0.2%. Controls were performed with DMSO or with medium alone. The medium was removed and each well was rinsed with 100 μL PBS 48 hours after addition of the test compound to the culture. The cells were then incubated with sterile 0.5% trypsin, 0.2% EDTA in PBS for 20 minutes at 37° C. The detached cells from each well were suspended in DMEM and dispersed into single cells by gentle pipeting through an Eppendorf pipette and cell growth was determined directly by counting the cells in a Neubauer counting chamber using phase contrast microscopy. Inhibition was calculated by comparison of the mean values of the test compound (N=3) with the control (N=6−8) activity: (1-test compound/control) ×100. Inhibition was statistically significant compared to that of control (Student's t Test; P=0.05). IC50 values (concentration required to inhibit cell growth by 50%) were determined for each agent which was derived by interpolation of a log inhibitor concentration versus response plot using four or more different concentrations of the compound spanning the 50% inhibition point.

For assay [3], the system named is Chinese hamster ovary (CHO) cells. The assay is described as follows: Growth inhibition assay, CHO cells. In kind it is cell-based. Conditions: 48 hours, cell counting, read-out: IC50 CHO (concentration required to inhibit cell growth by 50% relative to controls). Here is the method:
as §1, §2

The subject of assay [4] is Human oral epidermoid carcinoma cells (KB cell line). The experiment in a line: Growth inhibition assay, KB cell line. In kind it is cell-based. Conditions: 48 hours, cell counting, read-out: IC50 KB (concentration required to inhibit cell growth by 50% relative to controls). Here is the method:
as §1, §2

pIC50: −log10 of the molar value.

Regarding `Cc1ccccc1C(=O)Oc1c2cccc(Cl)c2cc2cccc(Cl)c12` [Compound 3m], the “% Inhibition (1 μM), relative percentage of inhibition” value in assay [1] (1 μM compound) was 0%. In addition, in assay [1] (10 μM compound), the “% Inhibition (10 μM), relative percentage of inhibition” value came to 23.0%. For the same molecule, the pIC50 in assay [2] is 3.97; in assay [3], 2.82; in assay [4] it was 2.94.

Values taken from patent US6369246B2, “Synthesis and pharmaceuticals of novel 9-substituted-1, 5-dichloroanthracene analogs” (Dr. Keith Chan, GloboAsia, LLC, priority 1999, dated 2002).
